From patent US20250236596A1, “HYDROXYLAMINE-BASED EGFR INHIBITORS FOR TREATMENT OF CANCER WITH BRAIN METASTASES” (University of Georgia Research Foundation, Inc., priority 2022, published 2025)

What was measured:
[1] = tested on: Ba/F3 EGFR-del E746_A750/C797S cells; assay: CellTiter-Glo viability assay, Ba/F3 EGFR-del E746_A750/C797S; format: cell-based; conditions: Mus musculus, BaF3, osimertinib-resistant, 72 h, read-out: antiproliferative IC50
Description: (§1) The A431, HCC827, SK-BR-3, ZR-75-30, AU565 and Caco-2 cell lines were obtained from ATCC. The NCI-H1975 cell line was obtained from SIBS. The NCI-H3255 cell line was obtained from CoBioer. Engineered Ba/F3 cell lines were obtained from Crown Bioscience. MCKII-MDR1 cells were obtained from the Netherlands Cancer Institute. HEK293 cells were obtained from Invitrogen. A431 cells were cultured in DMEM (Life Technologies) with 10% FBS. HCC827, NCI-H1975 and AU565 cells were cultured in RPMI1640 (Invitrogen) with 10% FBS. NCI-H3255 cells were cultured in BEGM (Lonza) with 10% FBS. Ba/F3 EGFR-del E746_A750/C797S and Ba/F3 EGFR-L858R/C797S cells were cultured in RPMI (Invitrogen) with 10% FBS. SK-BR-3 cells were cultured in McCoy's 5a (Invitrogen) with 10% FBS. ZR-75-30 cells were cultured in RPMI1640 (Invitrogen) with 20% FBS. BT474 cells were cultured in DMEM (Gibco) with 10% FBS and 10 μg/mL Insulin. Caco-2 and MCKII-MDR1 culture information is given in the permeability studies section. […]
(§2) Viability assays using A431, HCC827, NCI-H1975, NCI-H3255, Ba/F3 EGFR-del E746_A750/C797S, Ba/F3 EGFR-L858R/C797S, AU565, SK-BR-3 and ZR-75-30 cells were performed at Crown BioScience. […] Dose-response curves were generated and used to calculate the IC50 values which were calculated on GraphPad Prism from the non-linear regression equation fitted with a sigmoidal dose response and are presented as the mean±SEM.

CYP2C9 = CYP2C9 (Homo sapiens, UniProt P11712); assay: Human CYP450 inhibition in human liver microsomes, CYP2C9; format: in vitro ADME; conditions: pooled human liver microsomes, probe diclofenac (6 μM), 4′-hydroxylation
Description: Assessment of compound 15 was carried out at Pharmaron Inc. for its potential to inhibit cytochrome P450 (CYP) isoforms using human liver microsomes. The activities tested were CYP1A2-mediated phenacetin O-demethylation, CYP2C19-mediated (S)-mephenytoin 4′-hydroxylation, CYP2C9-mediated diclofenac 4′-hydroxylation, CYP2D6-mediated dextromethorphan O-demethylation and CYP3A4-mediated midazolam 1′-hydroxylation. Concentrations of substrates were phenacetin (40 μM), mephenytoin (50 μM), diclofenac (6 μM), dextromethorphan (2 μM) and midazolam (1 μM). Probe substrates phenacetin, mephenytoin and dextromethorphan were incubated at 37° for 20 min. Probe substrates diclofenac and midazolam were incubated at 37° for 5 min. […] The reactions were initiated by adding NADPH (1 mM final concentration) after a 5 min-preincubation and the assay was ran in duplicate (n=2). Samples were analyzed by UPLC-MS/MS.

[2] = tested on: HER2-positive breast cancer cell lines: AU565, SK-BR-3, BT474 and ZR-75-30; assay: CellTiter-Glo viability assay, HER2+ breast cancer cell lines; format: cell-based, human; conditions: AU565, SK-BR-3, BT474, ZR-75-30; result in words
Description: as §1, §2

[3] = tested on: HCC827 NSCLC cells (EGFR del E746_A750); assay: CellTiter-Glo viability assay, HCC827; format: cell-based; conditions: Homo sapiens; HCC827, EGFR del E746_A750, 72 h; read-out: antiproliferative IC50
Description: as §1, §2

hERG channel = biological target: T1, hERG channel (Homo sapiens, UniProt Q12809); assay: hERG channel inhibition, manual patch clamp; format: cell-based
T1 construct: assay at Pharmaron Inc; host or cells: HEK293
Description: The potential inhibitory effect of compounds on the hERG channel was assessed by Pharmaron Inc. using the manual patch clamp system as previously described.^20 The HEK293 cell line (Invitrogen) stably transfected with the hERG gene was employed. Compounds were tested at 5 concentrations (0.37, 1.11, 3.33, 10 and 30 μM) and run in triplicate (n=3). IC50 values were determined by plotting the % inhibition against the concentration of compounds using GraphPad Prism from the non-linear regression equation fitted with a sigmoidal dose-response curve, and the IC50 values are presented as the mean±SEM.

[4] = tested on: NCI-H1975 (EGFR L858R/T790M); assay: CellTiter-Glo viability assay, NCI-H1975; format: cell-based, human; conditions: 72 h, result in words
Description: as §1, §2

[5] = tested on: NCI-H3255 NSCLC cell line (EGFR L858R); assay: CellTiter-Glo viability assay, NCI-H3255; format: cell-based; conditions: Homo sapiens, 72 h, read-out: antiproliferative IC50
Description: as §1, §2

[6] = Metabolic stability in hepatocytes; format: in vitro ADME; conditions: human and rat; result in words
Description: Assessment of the compounds metabolic stability in incubations containing liver microsomes and hepatocytes of human and rat using the compound depletion approach was performed by Pharmaron Inc. Compound 15 underwent additional stability evaluation in monkey and dog hepatocytes. Microsome stability was assessed in duplicate (n=2) in the presence and absence of NADPH with liver microsomes (0.5 mg/mL) from human (BD Gentest) and SD rat (BD Gentest). Compounds were incubated in liver microsomes at 1 μM and samples (30 μL) were taken at 0.5, 15, 30, 45 and 60 min time points for analysis by LC-MS/MS. Hepatocyte stability was assessed in duplicate (n=2) at a working cell density of 0.5×10^6 cells/mL with hepatocytes from human (BioIVT), SD rat (BioIVT), cynomolgous monkey (RILD) or beagle dog (BioIVT). Compounds were incubated in hepatocytes at 1 μM and samples (25 μL) were taken at 0.5, 15, 30, 60, 90 and 120 min time points for analysis by LC-MS/MS. The in vitro half-life and intrinsic clearances were determined as previously described.^19
In vitro half-life (in vitro t1/2) was determined from the slope value in: in vitro t1/2=−(0.693/k).
Where, k, was determined by linear regression of the natural logarithm of the remaining percentage of the parent drug vs incubation time curve.

[7] = tested on: A431 cell line (overexpressed EGFR wt); assay: CellTiter-Glo viability assay, A431; format: cell-based, human
Description: as §1, §2

T1 sequence (Q12809 whole entry): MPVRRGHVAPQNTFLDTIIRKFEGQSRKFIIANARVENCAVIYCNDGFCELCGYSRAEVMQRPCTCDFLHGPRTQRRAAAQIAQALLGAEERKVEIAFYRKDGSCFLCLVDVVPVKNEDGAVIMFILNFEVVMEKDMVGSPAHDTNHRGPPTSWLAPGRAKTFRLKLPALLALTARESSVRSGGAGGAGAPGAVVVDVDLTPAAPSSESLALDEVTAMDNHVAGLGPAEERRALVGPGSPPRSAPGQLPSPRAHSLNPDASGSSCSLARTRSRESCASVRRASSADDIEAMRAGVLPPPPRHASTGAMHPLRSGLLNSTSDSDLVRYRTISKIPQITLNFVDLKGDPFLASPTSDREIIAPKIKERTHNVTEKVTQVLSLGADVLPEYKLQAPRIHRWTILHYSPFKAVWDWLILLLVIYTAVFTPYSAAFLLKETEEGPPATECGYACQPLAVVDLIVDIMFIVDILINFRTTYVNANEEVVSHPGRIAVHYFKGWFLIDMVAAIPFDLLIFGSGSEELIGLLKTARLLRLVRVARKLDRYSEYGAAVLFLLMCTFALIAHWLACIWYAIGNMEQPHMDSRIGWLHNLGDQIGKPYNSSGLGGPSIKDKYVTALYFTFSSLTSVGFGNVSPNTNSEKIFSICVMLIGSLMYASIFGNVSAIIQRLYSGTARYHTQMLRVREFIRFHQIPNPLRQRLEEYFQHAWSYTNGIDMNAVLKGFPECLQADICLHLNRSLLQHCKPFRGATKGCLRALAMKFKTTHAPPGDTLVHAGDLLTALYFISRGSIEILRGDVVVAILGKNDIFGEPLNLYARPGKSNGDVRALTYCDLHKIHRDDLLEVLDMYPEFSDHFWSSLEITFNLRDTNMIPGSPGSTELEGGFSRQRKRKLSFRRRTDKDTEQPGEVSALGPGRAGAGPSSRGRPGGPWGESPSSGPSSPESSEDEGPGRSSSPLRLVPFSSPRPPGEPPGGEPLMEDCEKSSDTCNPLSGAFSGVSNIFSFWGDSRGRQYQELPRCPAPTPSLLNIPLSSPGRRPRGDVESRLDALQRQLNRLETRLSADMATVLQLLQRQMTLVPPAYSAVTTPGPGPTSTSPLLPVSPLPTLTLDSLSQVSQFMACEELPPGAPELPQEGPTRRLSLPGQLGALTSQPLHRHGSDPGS
CYP2C9, sequence (P11712 whole entry, canonical isoform): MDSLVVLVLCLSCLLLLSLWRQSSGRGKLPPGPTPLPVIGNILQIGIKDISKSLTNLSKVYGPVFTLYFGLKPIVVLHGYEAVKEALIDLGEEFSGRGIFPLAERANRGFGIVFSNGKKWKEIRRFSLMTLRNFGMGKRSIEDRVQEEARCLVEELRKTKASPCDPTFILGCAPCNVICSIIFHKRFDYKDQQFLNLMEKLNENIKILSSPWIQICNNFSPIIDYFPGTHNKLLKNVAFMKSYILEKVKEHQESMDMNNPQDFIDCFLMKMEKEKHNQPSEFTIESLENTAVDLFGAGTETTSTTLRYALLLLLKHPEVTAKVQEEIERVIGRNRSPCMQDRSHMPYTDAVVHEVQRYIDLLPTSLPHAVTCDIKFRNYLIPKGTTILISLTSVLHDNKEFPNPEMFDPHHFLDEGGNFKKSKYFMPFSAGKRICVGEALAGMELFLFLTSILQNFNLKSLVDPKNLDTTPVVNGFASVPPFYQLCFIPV

**Q.** With `COc1cc2ncnc(Nc3cccc(Cl)c3F)c2cc1OCCON1CCN(C)CC1` [Compound 15, N-(3-chloro-2-fluorophenyl)-7-methoxy-6-(2-((4-methylpiperazin-1-yl)oxy)ethoxy)quinazolin-4-amine] as the compound, how does the IC50 [1] read?
**A.** The IC50 was 2.5 nM.

**Q.** What about the IC50 at 5 min (CYP2C9) of the same compound?
**A.** Its IC50 at 5 min is greater than 30000 nM.

**Q.** And the antiproliferative activity [2]?
**A.** The antiproliferative activity was “moderate antiproliferative activity”.

**Q.** And the IC50 [3]?
**A.** Its IC50 is 3.1 nM.

**Q.** And the IC50 (hERG channel; HEK293 cells transfected with hERG, patch clamp)?
**A.** The IC50 was 6480 nM.

**Q.** What about the hERG maximal inhibition (hERG channel; at 10 μM) of the same compound?
**A.** Its hERG maximal inhibition is “approximately 60%”.

**Q.** And the antiproliferative activity [4]?
**A.** The antiproliferative activity was “no activity”.

**Q.** What about the IC50 [5] of the same compound?
**A.** The IC50 was 7.2 nM.

**Q.** What about the stability in hepatocytes [6] of the same compound?
**A.** Its stability in hepatocytes is “good stability”.

**Q.** And the antiproliferative activity ([7]; A431, 72 h, result in words)?
**A.** The antiproliferative activity was “minimal activity”.

**Q.** What about the IC50 ([7]; Homo sapiens, A-431, A431, overexpressed EGFR wt, 72 h, read-out: antiproliferative IC50) of the same compound?
**A.** The IC50 was 83 nM.
